Laboratory results from article PMC10865860 (mBio, 2023).
Like-named read-outs stand apart in the source and are kept apart here. Where a SMILES comes first, the peptide text is derived from it. The star is where a group is joined. Cbz = O=C(OCc1ccccc1)*

Legend:
[1] = test system: SARS-CoV-2 pseudoviruses in cells expressing hACE2 plus TMPRSS2; experiment: microbe, parasite or virus in culture; format: cell-based; settings: Severe acute respiratory syndrome coronavirus 2, HEK-293T, read-out: EC50 Pseudovirus entry assay hACE2+ TMPRSS2
SARS-CoV-2 3CLpro [2] = target: T1, SARS-CoV-2 3CLpro (Severe acute respiratory syndrome coronavirus 2, UniProt P0DTD1); settings: read-out: IC50 SARS-CoV-2 (3CLpro); cited from earlier work
cathepsin G = target: T2, cathepsin G (Homo sapiens, UniProt P08311); experiment: biochemical
T2 construct: purchased Novus Biological
T2 sequence (P08311 21-255): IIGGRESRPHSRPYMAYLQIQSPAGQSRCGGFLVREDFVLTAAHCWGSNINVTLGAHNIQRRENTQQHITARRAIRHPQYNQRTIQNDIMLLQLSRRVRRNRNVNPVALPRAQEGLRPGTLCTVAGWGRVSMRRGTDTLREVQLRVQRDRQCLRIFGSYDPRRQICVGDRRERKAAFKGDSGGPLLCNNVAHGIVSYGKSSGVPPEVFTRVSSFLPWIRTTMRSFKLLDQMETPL

cathepsin L = target: T3, cathepsin L (Homo sapiens, UniProt P07711); experiment: biochemical
T3 construct: purchased AnaSpec
T3 sequence (P07711 114-333): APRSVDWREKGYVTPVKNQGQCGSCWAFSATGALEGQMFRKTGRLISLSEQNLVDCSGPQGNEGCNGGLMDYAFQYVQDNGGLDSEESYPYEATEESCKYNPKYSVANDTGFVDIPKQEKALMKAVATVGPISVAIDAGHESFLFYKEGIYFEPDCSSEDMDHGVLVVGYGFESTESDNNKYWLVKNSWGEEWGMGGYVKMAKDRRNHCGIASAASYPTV

[3] = test system: SARS-CoV-2 pseudoviruses in cells expressing hACE2; experiment: microbe, parasite or virus in culture; format: cell-based; settings: Severe acute respiratory syndrome coronavirus 2, HEK-293T, read-out: EC50 Pseudovirus entry assay hACE2
cathepsin D = target: T4, cathepsin D (Homo sapiens, UniProt P07339); experiment: biochemical
T4 construct: purchased Abcam
T4 sequence (P07339 65-412): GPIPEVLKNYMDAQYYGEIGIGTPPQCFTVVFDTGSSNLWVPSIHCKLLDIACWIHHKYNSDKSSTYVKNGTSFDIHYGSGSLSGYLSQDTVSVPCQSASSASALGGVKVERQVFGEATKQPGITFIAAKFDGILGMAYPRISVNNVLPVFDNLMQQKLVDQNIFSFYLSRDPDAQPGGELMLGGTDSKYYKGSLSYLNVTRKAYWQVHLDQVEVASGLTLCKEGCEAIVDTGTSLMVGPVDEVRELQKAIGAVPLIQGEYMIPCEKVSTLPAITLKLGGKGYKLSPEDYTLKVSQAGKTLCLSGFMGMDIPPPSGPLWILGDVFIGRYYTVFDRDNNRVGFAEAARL

neutrophil elastase = target: T5, neutrophil elastase (Homo sapiens, UniProt P08246); experiment: biochemical
T5 construct: purchased Sigma-Aldrich
T5 sequence (P08246 30-267): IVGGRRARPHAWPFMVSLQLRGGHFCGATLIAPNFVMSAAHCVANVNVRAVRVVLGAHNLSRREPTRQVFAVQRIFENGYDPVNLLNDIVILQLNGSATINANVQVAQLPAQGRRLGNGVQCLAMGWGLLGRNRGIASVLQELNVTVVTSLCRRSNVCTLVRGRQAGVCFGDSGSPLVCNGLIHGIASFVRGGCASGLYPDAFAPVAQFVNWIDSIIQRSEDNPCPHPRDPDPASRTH

chymotrypsin = format: biochemical, human
cathepsin B = target: T6, cathepsin B (Homo sapiens, UniProt P07858); experiment: biochemical
T6 construct: purchased Abcam

MERS-CoV 3CLpro [4] = target: T7, MERS-CoV 3CLpro (Middle East respiratory syndrome-related coronavirus, UniProt K9N7C7); settings: read-out: IC50 MERS-CoV (3CLpro); cited from earlier work
T7 sequence (K9N7C7 3248-3553 limits assumed): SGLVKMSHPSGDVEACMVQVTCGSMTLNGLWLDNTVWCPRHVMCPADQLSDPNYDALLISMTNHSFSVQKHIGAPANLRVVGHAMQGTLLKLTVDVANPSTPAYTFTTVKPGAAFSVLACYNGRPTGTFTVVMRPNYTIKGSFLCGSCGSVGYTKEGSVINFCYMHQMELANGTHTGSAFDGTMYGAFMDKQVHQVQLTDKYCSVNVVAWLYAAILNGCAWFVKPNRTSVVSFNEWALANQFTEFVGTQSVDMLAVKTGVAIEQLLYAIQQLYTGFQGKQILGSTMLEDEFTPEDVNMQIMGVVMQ

thrombin = target: T8, thrombin (Homo sapiens, UniProt P00734); experiment: biochemical
T8 construct: purchased AnaSpec

SARS-CoV-2 replicon [5] = settings: cited from earlier work
SARS-CoV-2 3CLpro [6] = target: T1, SARS-CoV-2 3CLpro; experiment: biochemical
SARS-CoV-2 replicon [7] = experiment: microbe, parasite or virus in culture; format: cell-based; settings: Severe acute respiratory syndrome coronavirus 2, read-out: EC50 SARS-CoV-2 replicon
MERS-CoV 3CLpro [8] = target: T7, MERS-CoV 3CLpro; experiment: biochemical

Row | SMILES | EC50 [1] | IC50 (SARS-CoV-2 3CLpro [2]) | IC50 (cathepsin G) | IC50 (cathepsin L) | EC50 [3] | IC50 (cathepsin D) | IC50 (neutrophil elastase) | IC50 (chymotrypsin) | IC50 (cathepsin B) | IC50 (MERS-CoV 3CLpro [4]) | IC50 (thrombin) | EC50 (SARS-CoV-2 replicon [5]) | IC50 (SARS-CoV-2 3CLpro [6]) | EC50 (SARS-CoV-2 replicon [7]) | IC50 (MERS-CoV 3CLpro [8])
1 | CC(C)CC(NC(=O)OCC1CC1c1cccc(F)c1)C(=O)NC(C=O)CC1CCNC1=O (stereo not shown) [5c] | > 50000 nM | 180 ± 30 nM | > 50000 nM | 30 ± 10 nM | 60 ± 30 nM | > 50000 nM | > 50000 nM | > 50000 nM | 240 ± 50 nM | 80 ± 30 nM | > 50000 nM | 12 nM |  |  | 
2 | CC(C)CC(NC(=O)OCC1CC1c1cccc(F)c1)C(=O)NC(CC1CCNC1=O)C(O)S(=O)(=O)O (stereo not shown) [5d] | > 50000 nM | 190 ± 20 nM | > 50000 nM | 20 ± 20 nM | 50 ± 20 nM | > 50000 nM | > 50000 nM | > 50000 nM | 230 ± 80 nM | 70 ± 30 nM | > 50000 nM |  |  |  | 
3 | COc1ccccc1C1CC1COC(=O)NC(CC(C)C)C(=O)NC(C=O)CC1CCNC1=O (stereo not shown) [11c] | > 50000 nM | 140 ± 40 nM | > 50000 nM | 30 ± 10 nM | 130 ± 30 nM | > 50000 nM | > 50000 nM | > 50000 nM | 310 ± 50 nM | 120 ± 110 nM | > 50000 nM |  |  |  | 
4 | COc1ccccc1C1CC1COC(=O)NC(CC(C)C)C(=O)NC(CC1CCNC1=O)C(O)S(=O)(=O)O (stereo not shown) [11d] | > 50000 nM | 140 ± 50 nM | > 50000 nM | 20 ± 20 nM | 120 ± 50 nM | > 50000 nM | > 50000 nM | > 50000 nM | 270 ± 60 nM | 70 ± 10 nM | > 50000 nM | 12 nM |  |  | 
5 | CC(C)[C@H](NC(=O)OCc1ccccc1)C(=O)N[C@H](C=O)Cc1ccccc1 [MDL28170] (Cbz-Val-Phe-aldehyde) | > 50000 nM |  |  |  | 10 ± 30 nM |  |  |  |  |  |  |  | > 50000 nM | > 50000 nM | > 50000 nM
6 | N=C(N)c1ccc2cc(OC(=O)c3ccc(N=C(N)N)cc3)ccc2c1 [Nafamostat] |  |  |  |  | > 50000 nM |  |  |  |  |  |  |  | > 50000 nM | > 50000 nM | > 50000 nM
